≈ marks a conversion by molar mass, not a printed value. Where “and” joins values, the source holds several entries; their conditions need not be identical. Equal values may be shown once. Where a name gives a salt, the structure may show the parent alone. Read-outs that look alike come from different tables or passages of the source. Values belong to the compound of their own block, whether it stands above or below them.
Experiments:
rat = conditions: cited from earlier work
mouse [1] = conditions: cited from earlier work
dog = conditions: cited from earlier work
Kunming mice = test: Effect on mouse's spontaneous activities; format: in vivo; conditions: positive control 2 mg/kg
Description: (Bibliography: 1. Xu, Shuyun Pharmacological Test Methodology, 2nd version, P.641, People Health Press, Beijing, 1991. 2. Medicine Secretary for the Ministry of Health, Guidelines on Preclinical Study of New Pharmaceuticals (weaten drugs), P. 42, July, 1993.) • 1. […] Effect on mouse's spontaneity times: (see Table 15).
Effect on the frequency of mice' spontaneous activities: healthy mice, and 50 mice whose frequency of activities was 220-320 within 5 min were selected and randomly divided into five groups, the establishment of dosages were the same as the above. The frequency of activity at o min were measured before drug administration, and then were conducted by intragastric administration, 30, 60, 120 and 180 min later, the frequency of activities within 5 min was measured and recorded respectively, then compared with that of the control group. The measuring time was the period between 9:00 am and 4:00 pm each day. A Six-light channel spontaneous activity instrument was used for one mouse, kept at 24-26° C. of room temperature of; and kept quiet; the test was carried out after the test boxes were covered with black cloth.

physchem = conditions: phosphate buffer, 25 °C, pH 6.86, aqueous buffer, thermodynamic from solid
[2] = Solubilizing test of puerarin; format: physicochemical; conditions: 25 °C, pH 6.86, aqueous buffer, thermodynamic from solid
Excerpt: The standard curve was plotted by concentration C against A (μg/mL) to obtain A=66.608 C+0.0017 R2=0.9999.

red blood cells = test: Hemolytic test; format: cell-based; conditions: 5% rabbit red blood cell suspension, 37° C., 30 min
Description: Under the present invention, using β-CD, HP-β-CD, SBE7-β-CD, SBE4-β-CD as controls, the hemolytic test results of 11 kinds of compounds are selected, shown in Table 13 and FIG. 9-FIG. 11.
10 ml of fresh rabbit blood were fetched to a clean conical flask, stirred with glass rod for 10 min to remove the fibers, then added with about 20 times of normal saline solution and placed in the centrifuge, 1500 rps/min, for about 3 min, then the supernatant was removed, washed repeated for several times until the supernatant solution becomes clear. The prepared red blood cells were prepared to 5% of suspension by normal saline solution. (Reference: State Drug Administration, Technical requirement of TCM injection study, Technical requirement of TCM new drug study, 1999, 11, 12)

[3] = Inclusion constant with puerarin, UV spectrophotometry; format: binding; conditions: PBS pH 6.86, 250 nm
Excerpt: (§1) PBS of PH6.86 was used to prepare puerarin dilute solution, and this dilute solution was used to prepare HP4-SBE2-β-CD sample solution. […] A straight line by 1/ΔA against 1/[CD]0 was plotted, and the inclusion constant Ka of puerarin/HP4-SBE2-β-CD can be obtained according to the value of intercept/slope.

[4] = Inclusion constant with prazosin hydrochloride, UV spectrophotometry; format: binding; conditions: PBS pH 6.86, 250 nm
Excerpt: as §1, with “hydrochloride prazosin” for “puerarin”, “A” for “A straight”, “prazosin hydrochloride/HP4-SBE2-β-CD” for “puerarin/HP4-SBE2-β-CD”

[5] = Inclusion constant with ibuprofen, UV spectrophotometry; format: binding; conditions: PBS pH 6.86, 265 nm
[6] = 10-100.0 mg/kg; cited from earlier work
mouse stomach intestine = conditions: 120 mg/kg and 400 mg/kg; cited from earlier work
mouse [7] = conditions: 40 mg/kg, 120 mg/kg and 400 mg/kg; cited from earlier work

Compound: CC(O)CCO (stereo not drawn) [1,3-Butylene glycol]
LD50 (rat; Oral): 22.8 mg/kg and 23.31 mg/kg
LD50 (rat; subcutaneous injection): 20.06 mg/kg and 16.51 mg/kg

Compound: OCc1ccccc1 [Benzyl alcohol]
LD50 (rat; Oral): 1230 mg/kg
LD50 (mouse [1]; Oral): 1580 mg/kg

Compound: O=C(OCc1ccccc1)c1ccccc1 [Benzyl benzoate]
LD50 (mouse [1]; Oral): 1400 mg/kg
LD50 (mouse [1]; cutaneous absorption): 4000 mg/kg

Compound: CN(C)C=O [DMF]
LD50 (mouse [1]; Oral): 2800 mg/kg
LD50 (mouse [1]; intraperitoneal injection): 1400 mg/kg
LD50 (mouse [1]; intravenous injection): 2000 mg/kg
LDLo (mouse [1]; subcutaneous injection): 1000 mg/kg

Compound: C[S+](C)[O-] [DMSO]
LD50 (mouse [1]; Oral): 16500 mg/kg
LD50 (mouse [1]; intraperitoneal injection): 3000 mg/kg
LD50 (mouse [1]; intravenous injection): 5750 mg/kg
LD50 (mouse [1]; subcutaneous injection): 14 mg/kg

Compound: CC(=O)OCC(COC(C)=O)OC(C)=O [Glyceryl triacetate]
LD50 (mouse [1]; subcutaneous injection): 2670 mg/kg and 3250 mg/kg

Compound: OC[C@@H](O)[C@@H](O)[C@H](O)[C@H](O)CO [Mannitol]
LD50 (rat; Oral): 17 mg/kg
LD50 (mouse [1]; Oral): 22 mg/kg
LD50 (mouse [1]; intraperitoneal injection): 14 mg/kg
LD50 (mouse [1]; intravenous injection): 17 mg/kg

Compound: CC(O)CO (stereo not drawn) [Propylene glycol]
LD50 (dog; Oral): 22 mg/kg
LD50 (dog; intravenous injection): 26 mg/kg

Compound: CCC(C)(C)O [amyl alcohol-tert]
LD50 (rat; Oral): 1000 mg/kg
LD50 (mouse [1]; subcutaneous injection): 2100 mg/kg

frequency of spontaneous activities (Kunming mice; 0 min): 302 ± 75 times/5 min
frequency of spontaneous activities (Kunming mice; 30 min): 57 ± 40 times/5 min
frequency of spontaneous activities (Kunming mice; 60 min): 16 ± 20 times/5 min
frequency of spontaneous activities (Kunming mice; 120 min): 22 ± 19 times/5 min
frequency of spontaneous activities (Kunming mice; 180 min): 25 ± 28 times/5 min
Compound: CN(C)CCCN1c2ccccc2Sc2ccc(Cl)cc21 [chloropromazine]

Compound: CCOC(=O)C(C)O (stereo not drawn) [ethyl lactate]
LD50 (mouse [1]; intravenous injection): 0.6 (ml)
LD50 (mouse [1]; subcutaneous injection): 2.5 (ml)

solubility at 12 h (physchem): 0.0495 µg/mL
Compound: COc1cc2nc(N3CCN(C(=O)c4ccco4)CC3)nc(N)c2cc1OC [prazosin hydrochloride]

Compound: O=c1c(-c2ccc(O)cc2)coc2c([C@@H]3O[C@H](CO)[C@@H](O)[C@H](O)[C@H]3O)c(O)ccc12 [puerarin]
solubility at 12 h [2]: 5800 µg/mL (≈ 13.9 mM)

Compound: OC[C@H]1O[C@@H]2O[C@H]3[C@H](O)[C@@H](O)[C@@H](O[C@H]4[C@H](O)[C@@H](O)[C@@H](O[C@H]5[C@H](O)[C@@H](O)[C@@H](O[C@H]6[C@H](O)[C@@H](O)[C@@H](O[C@H]7[C@H](O)[C@@H](O)[C@@H](O[C@H]8[C@H](O)[C@@H](O)[C@@H](O[C@H]1[C@H](O)[C@H]2O)O[C@@H]8CO)O[C@@H]7CO)O[C@@H]6CO)O[C@@H]5CO)O[C@@H]4CO)O[C@@H]3CO [β-CD, β-cyclodextrin]
LD50 (mouse [1]; intraperitoneal injection): 788 mg/kg
Concentration when the degree of hemolysis of 50 percent (red blood cells): 1140 µg/mL
concentration without hemolysis (red blood cells): 280 µg/mL

Compound: PEG400
LD50 (mouse [1]; intraperitoneal injection): 4200 mg/kg
LD50 (mouse [1]; subcutaneous injection): 10 (ml)

Compound: Sodium deoxycholate
LD50 (mouse [1]; Oral): 815 mg/kg
LD50 (mouse [1]; intraperitoneal injection): 1400 mg/kg
LD50 (mouse [1]; subcutaneous injection): 75 mg/kg

Compound: hydroxypropyl-β-CD [HP-β-CD]
inclusion constant Ka [3]: 345
inclusion constant Ka [4]: 597
inclusion constant Ka [5]: 221
effect on respiratory amplitude, respiratory frequency, blood pressure and ECG [6]: no obvious effect
Concentration when the degree of hemolysis of 50 percent (red blood cells): 12610 µg/mL
concentration without hemolysis (red blood cells): 8160 µg/mL
impellent function of mouse stomach intestine (mouse stomach intestine): slight reduction
effect on mouse fasting blood glucose (mouse [7]): no obvious effect on mouse fasting blood glucose
